Here are results for 3 compounds from publication PMC11274883, “Anticancer Effect of Pt^[sequence], Pt^II5MESS, Pt^II56MESS and Their Platinum(IV)-Dihydroxy Derivatives against Triple-Negative Breast Cancer and Cisplatin-Resistant Colorectal Cancer” (Cancers, 2024).

SMILES strings stand for the structures.

What all share (assay type): cell-based
One data set deals with A2780. Put plainly: WST-1 cytotoxicity, 72 h. Particulars: for IC50 / potency relative to cisplatin: A2780, 72 h; for IC50: mean ± SEM; for Selective cytotoxicity index (SCI): IC50 MCF10A/IC50 A2780. The method, then: (§1) Cells were seeded in 96-well flat-bottom culture plates at a concentration of 1000 cells per well. […] After 72 h, the medium was removed and replaced with new medium. The cell viability reagent WST-1 (10 µL, Roche Diagnostics, Indianapolis, IN, USA) was added to each well. After an hour, the absorbance was measured at 450 nm using a versatile microplate reader (Bio-strategy, Campbellfield, VIC, Australia). Three separate experiments were performed, each with n = 3 replicates. GraphPad prism 10 was used to calculate apparent IC50 values using the nonlinear regression model Y = Bottom + (Top-Bottom)/(1 + 10^(X-LogIC50)) where Top and bottom are plateaus in the y-axis (% survival).
(In general: Formazan colour is commonly taken as a measure of viable cells.)

A further data set deals with ADDP. Briefly: WST-1 cytotoxicity, 72 h. Particulars: for IC50 / potency relative to cisplatin: ADDP, 72 h; for IC50: mean ± SEM; for Selective cytotoxicity index (SCI): IC50 MCF10A/IC50 ADDP. On the procedure:
as §1

Another data set deals with HT29. Briefly: WST-1 cytotoxicity, 72 h. Particulars: for IC50 / potency relative to cisplatin: HT29, 72 h; for IC50: mean ± SEM; for Selective cytotoxicity index (SCI): IC50 MCF10A/IC50 HT29. The method, then:
as §1

The subject of the next data set is MCF−7. Put plainly: WST-1 cytotoxicity, 72 h. Particulars: for IC50 / potency relative to cisplatin: MCF−7, 72 h; for IC50: mean ± SEM; for Selective cytotoxicity index (SCI): IC50 MCF10A/IC50 MCF−7. On the procedure:
as §1

In the next data set the test system is MDA−MB−231. Briefly: WST-1 cytotoxicity, 72 h. Particulars: for IC50 / potency relative to cisplatin: MDA−MB−231, 72 h; for IC50: mean ± SEM; for Selective cytotoxicity index (SCI): IC50 MCF10A/IC50 MDA−MB−231. On the procedure: as §1
Another data set concerns MCF10A. Put plainly: WST-1 cytotoxicity, 72 h. Particulars: mean ± SEM. On the procedure:
as §1, with “survival). The R^2 value of the curve fits ranged from 0.8972 to 0.9794.” for “survival).”

The next data set concerns HT29 spheroids. Put plainly: 3D bioprinted spheroid cytotoxicity (WST-1). Particulars: 72 h, mean ± SEM. An excerpt:
(§2) To evaluate the cytotoxic effect of platinum(II) and (IV) complexes in 3D cell culture, MDA−MB−231 or HT29 cells were used to bioprint networks or spheroids with the non-contact drop-on-demand 3D RASTRUM bioprinter (Inventia Life Science, Alexandria, NSW, Australia). The 3D cultures use two constituents: bioink and activator. Cell pellets (2 × 10^6 cells) were resuspended in an activator reagent which forms an instant gel after its addition to the bioink by the bioprinter. The 3D large plug cell model with polyethylene glycol bioinks formulated to mimic the properties of in vivo tissue were chosen as follows. Matrix Px02.31 (activator F177 and bioink F242 with RGD: Fibronectin) was used for MDA−MB−231 3D embedded networks, Px02.00 (activator F177 and bioink F119 without RGD additives, Table S1) was used for MDA−MB−231 spheroids and matrix #Px02.09 (activator F177 and bioink F236 with adhesion peptides including, RGD: Fibronectin, and GFOGER: collagen type I to recapitulate rich in vivo tissue extracellular environments) was used for HT29 spheroids (Inventia Life Science) (Table S1). Each cell line was printed at 10,000 cells/well and loaded with the bioink fluids into the selected printer cartridge. After the automated priming of all fluids into the printer nozzles, each cell line was individually printed on tissue culture plates (Nunc^TM MicroWell^TM 96-Well, Nunclon Delta-Treated, Flat-Bottom Microplate, ThermoFisher #167008), with RASTRUM creating the 3D Large Plug across the 96-well plate. Following completion of the print run, 200 μL DMEM culture medium was added to each well using multichannel pipettes. The plate was then incubated for 7 days (humidified incubator with 5% CO2 at 37 °C) for compact and homogenous spheroid formation before the cytotoxicity assay. When the spheroids developed, post-7-day incubation, media was removed and replaced with 100 µL DMEM. […] Cytotoxicity was then assessed using the WST-1 assay as previously described in Section 2.3.

The subject of a further data set is MDA−MB−231 spheroids. Put plainly: 3D bioprinted spheroid cytotoxicity (WST-1). Particulars: 72 h, mean ± SEM.
Description: as §2

Another data set relates to HT29 cells. Put plainly: DCFDA cellular ROS detection assay. Particulars: complexes at IC50, TBHP 20 µM. On the procedure:
(§3) DCFDA/H2DCFDA-cellular ROS Assay Kit (Abcam, Cambridge, MA, USA) was used to investigate the production of ROS in treated cells, as previously described. MDA−MB−231 or HT29 cells were seeded at a total concentration of 2500 cells/well in 96-well plates and incubated overnight. DMEM was then removed, and cells washed with 1× kit buffer, and stained with 25 µM 2′,7′-dichlorofluorescein diacetate (DCFH-DA) for 45 min. […] After that, the plates were scanned using the Glo-Max®-Multimode microplate reader (Promega Corporation, Alexandra, VIC, Australia) at an excitation/emission of 485/535 nm to detect fluorescence (relative fluorescence units, or RFU) at various time points. A positive control was generated using 20 µM tert-butyl hydroperoxide (TBHP), and the same procedure was applied with DCFDA. Three independent experiments in triplicates were implemented.

The next data set concerns MDA−MB−231 cells. Put plainly: DCFDA cellular ROS detection assay. Particulars: complexes at IC50, TBHP 20 µM. The method, then:
as §3

The term IC50 denotes the point on the concentration scale where inhibition reaches its midpoint. Read a low IC50 as greater potency. In the case of `N.N.[Cl][Pt][Cl]` [Cisplatin, cisplatin], the half-maximal inhibitory concentration (IC50) with A2780 stood at 21500 ± 1550 nM; in the data set on ADDP it was 112000 ± 2020 nM; in the data set with HT29, 77800 ± 1970 nM; with MCF−7, 33000 ± 1350 nM; in the data set on MDA−MB−231 it was 13100 ± 1360 nM; with MCF10A it was 4710 ± 1470 nM. The values for the IC50 with HT29 spheroids and in the data set on MDA−MB−231 spheroids were 445000 ± 5090 nM and 48500 ± 1620 nM, respectively. In addition, the ROS production was found to be 205.39 RFU with HT29 cells (HT29, 24 h); 285.11 RFU in the data set on HT29 cells (HT29, 48 h); 316.55 RFU with HT29 cells (HT29, 72 h); 279.82 RFU in the data set on MDA−MB−231 cells (MDA−MB−231, 24 h); 325.96 RFU with MDA−MB−231 cells (MDA−MB−231, 48 h); 369.97 RFU in the data set on MDA−MB−231 cells (MDA−MB−231, 72 h).
For the compound `Cc1cc2cccnc2c2ncccc12.N[C@H]1CCCC[C@@H]1N.O=[N+]([O-])[O-].O=[N+]([O-])[O-].[Pt+2]` [Pt^II5MESS, [Pt(5-methyl-1,10-phenanthroline)(1S,2S-diaminocyclohexane)](NO3)2], the “potency relative to cisplatin” value in the data set on A2780 is 33 fold; with ADDP, 85 fold; in the data set with HT29 it was 149 fold; in the data set with MCF−7, 38 fold; in the data set with MDA−MB−231 it was 25 fold. Also, the half-inhibitory concentration (IC50) stood at 650 ± 1710 nM in the data set with A2780; 1320 ± 1330 nM in the data set on ADDP; 550 ± 1420 nM in the data set on HT29; 860 ± 1670 nM in the data set on MCF−7; 520 nM in the data set on MDA−MB−231; 1180 ± 1750 nM with MCF10A. The IC50 in the data set on HT29 spheroids was 2910 ± 1390 nM; in the data set with MDA−MB−231 spheroids, 4080 ± 1370 nM. For the same compound, the “Selective cytotoxicity index (SCI)” value in the data set on A2780 was determined as 1.82; with ADDP, 0.89; with HT29, 2.15; in the data set on MCF−7 it was 1.37; in the data set on MDA−MB−231 it was 2.27. The ROS production with HT29 cells (HT29, 24 h) came to 278.00 RFU; in the data set with HT29 cells (HT29, 48 h), 362.89 RFU; in the data set with HT29 cells (HT29, 72 h), 404.44 RFU; in the data set with MDA−MB−231 cells (MDA−MB−231, 24 h), 316.23 RFU; in the data set on MDA−MB−231 cells (MDA−MB−231, 48 h) it was 372.49 RFU; in the data set on MDA−MB−231 cells (MDA−MB−231, 72 h), 399.97 RFU.
In the case of `Cc1c(C)c2cccnc2c2ncccc12.N[C@H]1CCCC[C@@H]1N.O=[N+]([O-])[O-].O=[N+]([O-])[O-].[Pt+2]` [Pt^II56MESS, [Pt(5,6-dimethyl-1,10-phenanthroline)(1S,2S-diaminocyclohexane)](NO3)2], the “potency relative to cisplatin” value in the data set on A2780 was 113 fold; in the data set on ADDP, 147 fold; in the data set on HT29, 432 fold; in the data set on MCF−7, 59 fold; with MDA−MB−231, 93 fold. Moreover, the IC50 with A2780 was 190 nM; in the data set with ADDP, 760 ± 1270 nM; with HT29, 180 nM; in the data set with MCF−7, 560 nM; in the data set with MDA−MB−231 it was 140 nM; with MCF10A it was 410 nM. For the same compound, the results for the half-inhibitory concentration (IC50) in the data set on HT29 spheroids and in the data set on MDA−MB−231 spheroids were 990 ± 1290 nM and 2490 ± 1980 nM, respectively. In addition, the “Selective cytotoxicity index (SCI)” value with A2780 is 2.16; in the data set on ADDP, 0.54; in the data set with HT29, 2.28; in the data set on MCF−7, 0.73; in the data set on MDA−MB−231, 2.93. In addition, the ROS production with HT29 cells (HT29, 24 h) is listed as 321.56 RFU; in the data set with HT29 cells (HT29, 48 h) it was 433.67 RFU; in the data set with HT29 cells (HT29, 72 h), 453.89 RFU; with MDA−MB−231 cells (MDA−MB−231, 24 h) it was 338.49 RFU; in the data set with MDA−MB−231 cells (MDA−MB−231, 48 h), 418.08 RFU; with MDA−MB−231 cells (MDA−MB−231, 72 h) it was 446.09 RFU.
